Laboratory results from patent US11213590B2, “SSTR-targeted conjugates and particles and formulations thereof” (priority 2016, dated 2022).
Read-outs that look alike come from different tables or passages of the source.

Tests used:
NCI-H69 xenograft = assay: NCI-H69 lung xenograft efficacy, formulations and schedules; format: in vivo, mice; conditions: cisplatin iv 5.0 mg/kg 1x/week combined with etoposide ip 8.0 mg/kg 3x/week over two weeks (SOC); Day 21
Experimental: A further NCI-H69 study design included Conjugate 57 dosed iv at 1.0 mg/kg formulated in propylene glycol (PG), 1.0 mg/kg formulated in Solutol HS15, 0.5 mg/kg formulated in Solutol HS15 dosed twice per week, and 0.33 mg/kg formulated in Solutol HS15 dosed three times per week. A comparator group was dosed with SOC cisplatin dosed iv at 5.0 mg/kg once per week/etoposide dosed ip at 8.0 mg/kg three times per week over two weeks. A negative control vehicle was dosed with the Solutol HS 15 vehicle. All groups contained 10 animals.

CYP3A4 = CYP3A4 (Homo sapiens, UniProt P08684); conditions: KADCYLA package insert; to a lesser extent by CYP3A5; cited from earlier work
CYP3A4, sequence (P08684 whole entry): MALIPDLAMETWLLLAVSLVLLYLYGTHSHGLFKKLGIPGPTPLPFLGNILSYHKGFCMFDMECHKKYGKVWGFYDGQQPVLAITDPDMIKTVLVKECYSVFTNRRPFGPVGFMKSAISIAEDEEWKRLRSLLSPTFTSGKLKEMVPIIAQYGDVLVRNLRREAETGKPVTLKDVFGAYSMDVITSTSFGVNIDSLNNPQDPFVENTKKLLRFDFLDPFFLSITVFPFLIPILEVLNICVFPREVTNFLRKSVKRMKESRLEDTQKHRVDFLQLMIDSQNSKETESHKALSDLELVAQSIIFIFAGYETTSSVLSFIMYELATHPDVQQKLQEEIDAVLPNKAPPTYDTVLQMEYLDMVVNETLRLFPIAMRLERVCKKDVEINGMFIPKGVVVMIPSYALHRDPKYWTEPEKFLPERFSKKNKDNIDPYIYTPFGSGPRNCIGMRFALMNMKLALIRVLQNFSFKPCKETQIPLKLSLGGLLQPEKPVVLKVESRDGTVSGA

NCI-H727 = assay: cells; format: cell-based, human; conditions: Homo sapiens, read-out: Proliferation Inhibition IC50 of DM1
Experimental: (§1) The purpose of this study was to determine the receptor-dependent inhibition of proliferation in vitro by the somatostatin targeting conjugate Conjugate 57 and determine the sensitivity to DM1 in the human SSTR2 expressing cancer cell lines: NCI-H69, NCI-H82, NCI-H727 and HCC-33. Cells were incubated with Conjugate 57 for 6 hours, in the presence or absence of an excess of octreotide, a somatostatin analogue. A three-fold serial dilution of Conjugate 57 was used for a total of ten concentration points. After treatment, cells were washed, incubated for an additional period of time, either 72 or 96 hours and proliferation was measured using the CellTiter-Glo® Luminescent Cell Viability Assay. The IC50 of Conjugate 57 was used to determine the inhibiting activity in proliferation assays. To determine DM1 sensitivity a similar method to the Conjugate 57 assay was employed with the additional incubation time points of 30 minutes, 1, 2, and 4 hours and the exclusion of the pre-treatment with octreotide. DM1 effect from the most to least sensitive cell line was determined to be: NCI-H69>HCC-33>NCI-H82>NCI-H727 (Table 5B). […] The addition of excess octreotide (100 μM) competes with Conjugate 57 for binding to the SSTR2 receptor. […] In the NCI-H69 experiments, pre-incubation with an excess of octreotide modestly diminished the activity of Conjugate 57 by 1.6 and 2.4 fold, depending on the assay conditions. In the HCC-33 cell line, activity of Conjugate 57 was 3.2 (±1.4) times higher when dosed alone, compared to when the cells were pre-incubated with octreotide. The small but measureable changes in Conjugate 57 activity in the presence of excess octreotide seen in the NCI-H69 and HCC-33 cell lines supports the receptor dependence of the Conjugate 57 antiproliferative effect seen in vitro. In summary, although all the cell lines tested in these experiments express the SSTR2 protein, they have different levels of sensitivity to the Conjugate 57 conjugate of which the DM1 sensitivity may be a contributing factor.

NCI-H69 = assay: cells; format: cell-based, human; conditions: Homo sapiens, read-out: Proliferation Inhibition IC50 of DM1
Experimental: as §1

NCI-H82 = assay: cells; format: cell-based, human; conditions: Homo sapiens, read-out: Proliferation Inhibition IC50 of DM1
Experimental: as §1

HCC-33 = assay: Inhibition of proliferation, CellTiter-Glo, HCC-33; format: cell-based, human; conditions: Homo sapiens, HCC33, 6 h incubation, n = 3, read-out: Proliferation Inhibition IC50 of DM1
Experimental: as §1

[1] = cited from earlier work

With N.N.[Cl][Pt][Cl] [Cisplatin, reference compound] the “MTV (Mean Tumor Volume)” value (NCI-H69 xenograft) was 229 mm3 and the “TGI (Tumor Growth Inhibition)” value (NCI-H69 xenograft) was 84%.

In the case of COc1cc2cc(c1Cl)N(C)C(=O)C[C@H](OC(=O)[C@H](C)N(C)C(=O)CCS)C1(C)O[C@H]1[C@H](C)[C@@H]1C[C@@](O)(NC(=O)O1)[C@H](OC)/C=C/C=C(\C)C2 (stereo partly drawn) [DM1, mertansine (DM1), reference compound], the “metabolizing enzymes in vitro” value (CYP3A4) is listed as “metabolized in vitro mainly by CYP3A4”, the IC50 (NCI-H727; 0.5 h, 30 min incubation) is listed as 1.16 µM and the IC50 (NCI-H727; 1 h incubation) is listed as 0.665 µM. It also gave an IC50 (NCI-H727; 2 h incubation) of 0.474 µM, an IC50 (NCI-H727; 4 h incubation) of 0.38 µM and an IC50 (NCI-H727; 6 h incubation) of 0.534 µM. It also gave an IC50 (NCI-H69; 0.5 h, 30 min incubation) of 0.015 µM, an IC50 (NCI-H69; 1 h incubation) of 0.008 µM and an IC50 (NCI-H69; 2 h incubation) of 0.014 µM. The IC50 (NCI-H69; 4 h incubation) was 0.011 µM, the IC50 (NCI-H69; 6 h incubation) was 0.006 µM and the IC50 (NCI-H82; 0.5 h, 30 min incubation) was 0.171 µM. It also gave an IC50 (NCI-H82; 1 h incubation) of 0.232 µM, an IC50 (NCI-H82; 2 h incubation) of 0.183 µM and an IC50 (NCI-H82; 4 h incubation) of 0.188 µM. For the same compound, the IC50 (NCI-H82; 6 h incubation) was 0.056 µM and the IC50 (HCC-33) was 0.034 µM.

For C[C@@H](O)[C@@H]1NC(=O)[C@H](CCCCN)NC(=O)[C@@H](Cc2c[nH]c3ccccc23)NC(=O)[C@H](Cc2ccccc2)NC(=O)[C@@H](NC(=O)[C@@H](Cc2ccccc2)NC(=O)CN(CCN(CCN(CC(=O)O)CC(=O)O)CC(=O)O)CC(=O)O)CSSC[C@@H](C(=O)N[C@H](CO)[C@@H](C)O)NC1=O [^111In pentetreotide, metal not drawn], the “hormonal effect relative to octreotide” value ([1]; according to the manufacturer) is given as 1/10 and the “adverse reactions, frequency” value ([1]; human, in vivo) is given as < 1%.
